Laboratory results published in PubChem BioAssay (NCI).
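96-well plates; 48 h exposure; 5 concentrations. Endpoints by linear interpolation between flanking doses. Not reached: highest tested concentration assigned. The concentration for 50% growth inhibition is given as GI50. TGI is the concentration that stops growth completely.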

Key:
Assay in all cases: NCI anticancer screen, dose series, 48 h
[1] = tested on: OVCAR-5 ovarian
[2] = tested on: NCI-H522 lung
[3] = tested on: HCT-116 colon
[4] = tested on: LOX IMVI melanoma
[5] = tested on: CAKI-1 renal
[6] = tested on: UACC-257 melanoma
[7] = tested on: RPMI-8226 leukemia
[8] = tested on: HS 578T breast
[9] = tested on: MCF7 breast
[10] = tested on: T-47D breast
[11] = tested on: SNB-19 CNS
[12] = tested on: MDA-MB-231 breast
[13] = tested on: SN12C renal
[14] = tested on: SF-268 CNS
[15] = tested on: HOP-62 NSCLC
[16] = tested on: IGROV1 ovarian
[17] = tested on: COLO 205 colon
[18] = tested on: SR leukemia
[19] = tested on: MDA-MB-435
[20] = tested on: BT-549 breast
[21] = tested on: M14 melanoma
[22] = tested on: HCT-15 colon
[23] = tested on: SK-MEL-2 melanoma
[24] = tested on: NCI-H226 lung
[25] = tested on: A549 NSCLC
[26] = tested on: HCC-2998 colon
[27] = tested on: UACC-62 melanoma
[28] = tested on: UO-31 renal
[29] = tested on: HL-60(TB) leukemia

COc1ccc(C(=O)COC(=O)[C@H](C[Se][Se]C[C@H](NC(=O)c2ccc(Br)cc2F)C(=O)OCC(=O)c2ccc(OC)cc2)NC(=O)c2ccc(Br)cc2F)cc1
GI50 [1]: 816 nM | TGI [1]: 2540 nM | GI50 [2]: 660 nM | TGI [2]: 2020 nM | GI50 [3]: 949 nM | TGI [3]: 2780 nM | GI50 [4]: 914 nM | TGI [4]: 2320 nM | GI50 [5]: 1000 nM | TGI [5]: 2970 nM | GI50 [6]: 2250 nM | TGI [6]: 5310 nM | GI50 [7]: 502 nM | TGI [7]: 5690 nM | GI50 [8]: 362 nM | TGI [8]: 966 nM | GI50 [9]: 1520 nM | TGI [9]: 4100 nM | GI50 [10]: 1730 nM | TGI [10]: 6030 nM | GI50 [11]: 427 nM | TGI [11]: 4900 nM | GI50 [12]: 846 nM | TGI [12]: 2770 nM | GI50 [13]: 1040 nM | TGI [13]: 2490 nM | GI50 [14]: 943 nM | TGI [14]: 3210 nM | GI50 [15]: 415 nM | TGI [15]: 1830 nM | GI50 [16]: 820 nM | TGI [16]: 2620 nM | GI50 [17]: 2560 nM | TGI [17]: 7950 nM | GI50 [18]: 478 nM | TGI [18]: 4820 nM | GI50 [19]: 1510 nM | TGI [19]: 5050 nM | GI50 [20]: 860 nM | TGI [20]: 2470 nM | GI50 [21]: 588 nM | TGI [21]: 1850 nM | GI50 [22]: 1030 nM | TGI [22]: 2990 nM | GI50 [23]: 862 nM | TGI [23]: 2570 nM | GI50 [24]: 581 nM | TGI [24]: 2070 nM | GI50 [25]: 421 nM | TGI [25]: 3790 nM | GI50 [26]: 617 nM | TGI [26]: 1850 nM | GI50 [27]: 1060 nM | TGI [27]: 2860 nM | GI50 [28]: 579 nM | TGI [28]: 1680 nM | GI50 [29]: 2720 nM | TGI [29]: 12200 nM
